Assay results as given in patent publication US20030186424A1, “Reagents and methods for identifying and modulating expression of genes regulated by CDK inhibitors” (priority 2001, published 2003).

B1: Bax TATA box core promoter probe (dsDNA)
DNA 1: ACTCAGTTTTTAGTCATCTATAACGTCCTGCCTGGAAGCATGCTATTTTGGGCCTCTGAGCTT
DNA 2: AAGCTCAGAGGCCCAAAATAGCATGCTTCCAGGCAGGACGTTATAGATGACTAAAAACTGAGT

Tests used:
CRD1 domain of p300 = assay: CRD1 dependent stimulation of transcription (Gal4 p300 CRD1+ luciferase reporter); assay type: cell-based, human; settings: treatment of cells with the compound; data not shown
Method: Calcium phosphate transfections of U-2 OS cells were performed substantially as disclosed in Webster & Perkins (1999, Mol. Cell. Biol. 19: 3485-3495). Briefly, transfections were performed in 6 cm dishes using 2 μg of reporter plasmid, 1.6 μg of RSV p21 or RSV ADH control plasmid and 5 ng of Gal4 expression plasmid (except where indicated in the figure legend). Cells were harvested approximately 40 hours after transfection. Lysates were prepared using passive lysis buffer (Promega) and luciferase assays were performed according to manufacturer's instructions (Promega). All experiments were performed separately, a minimum of three times before calculating means and standard errors as shown in the Figures. Relative luciferase levels were calculated by referring to the level of activity seen with the Gal4 DNA-binding domain (amino acids 1-147) not fused to a heterologous activator, except when specifically referred to.
Wild type p21 and the two mutants were cotransfected with Gal4 p300^CRD+ (192-1044) and Gal4 E1B luciferase into U-2 OS cells. Both mutants stimulated transcriptional activity to the same extent as the wild type protein (FIG. 8B), consistent with a Cyclin/CDK independent role for p21 regulation of CRD1. […]

TBP + TFIIB complex = TBP + TFIIB complex (UniProt P20226;Q00403 P20226:1-339,Q00403:1-316); assay: EMSA; no complex seen; 30 C, 4 mM MgCl2, 55 mM KCl; exact probe span not stated; settings: tags: gift from Stefan Roberts, University of Manchester; label: 32P
TBP + TFIIB complex, sequence (P20226 whole entry, chain 1 of 2): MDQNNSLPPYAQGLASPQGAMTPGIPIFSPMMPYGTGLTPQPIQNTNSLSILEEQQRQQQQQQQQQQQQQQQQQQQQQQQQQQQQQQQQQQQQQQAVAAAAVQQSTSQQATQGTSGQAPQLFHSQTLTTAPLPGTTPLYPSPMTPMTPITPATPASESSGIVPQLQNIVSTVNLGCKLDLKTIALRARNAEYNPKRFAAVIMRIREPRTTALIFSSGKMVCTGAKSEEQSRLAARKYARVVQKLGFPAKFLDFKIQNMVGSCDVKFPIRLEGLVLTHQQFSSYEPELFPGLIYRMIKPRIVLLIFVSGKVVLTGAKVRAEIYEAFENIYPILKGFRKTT
TBP + TFIIB complex, sequence (Q00403 whole entry, chain 2 of 2): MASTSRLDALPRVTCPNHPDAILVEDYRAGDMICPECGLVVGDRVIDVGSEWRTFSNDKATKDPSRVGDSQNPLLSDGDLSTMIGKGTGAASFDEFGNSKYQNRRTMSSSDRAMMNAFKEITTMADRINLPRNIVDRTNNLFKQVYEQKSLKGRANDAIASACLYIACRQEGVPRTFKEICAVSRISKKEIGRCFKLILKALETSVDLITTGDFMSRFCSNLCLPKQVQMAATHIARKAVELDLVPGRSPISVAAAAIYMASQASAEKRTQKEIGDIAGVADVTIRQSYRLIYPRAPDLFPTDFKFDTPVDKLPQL
Text: The sequence of the TATA box and surrounding sequences was known in the art to influence binding of basal transcription factors (Lieberman et al., 1997, Mol. Cell. Biol. 17: 6624-6632). Since the Bax TATA sequence differs considerably from AdML, these constructs were used to determine whether the observed structural differences would be associated with differential binding of the core transcription factors TBP (TATA binding protein) and TFIIB. In these experiments, purified recombinant TBP and TFIIB were therefore incubated with ³²P labeled probes containing the AdML and Bax TATA boxes and analyzed by electrophoretic mobility shift assay (EMSA), performed as follows. ³²P labeled probe DNA was incubated for 1 hr at 30° C. with ˜1 ng purified recombinant TBP, ˜2 ng purified recombinant TFIIB (both proteins gifts from Dr Stefan Roberts, University of Manchester), 5 μg BSA, 250 ng poly(dG.dC) competitor and 12 μL buffer (having a formula of 10 mM Hepes pH7.9, 0.2 mM EDTA, 55 mM KCl, 4 mM MgCl₂, 5 mM ammonium sulphate, 8% v/v glycerol, 2% v/v polyethylene glycol, 5 mM β-mercaptoethanol, and 0.2 mM PMSF). Samples were then resolved using a 4.8% acrylamide gel (in 0.5×TB buffer). The gel was then dried and exposed to film.

Molecule | CRD1 dependent stimulation of transcription (CRD1 domain of p300) | binding result (TBP + TFIIB complex)
NC(Cn1ccc(=O)c(O)c1)C(=O)O (stereo not drawn) [mimosine] | does not result in CRD1 dependent stimulation of transcription | 
CC[C@H](CO)Nc1nc(NCc2ccccc2)c2ncn(C(C)C)c2n1 [roscovitine] | does not result in CRD1 dependent stimulation of transcription | 
B1 |  | no binding
